Measurements reported in patent US9580418B2, “Bicyclic aromatic carboxamide compounds useful as Pim kinase inhibitors” (Incyte Corporation, priority 2014, dated 2017).

Experiments:
Pim-3 = Pim-3 (Homo sapiens (Human), UniProt Q86V86); test: Pim-3 kinase assay (Pim enzyme assays, Example A); type: biochemical; conditions: 1 mM ATP, BAD peptide substrate; read-out: PIM3 IC50
Protocol: (§1) Pim-1 and Pim-3 kinase assays-20 μL reactions were run in white 384 well polystyrene plates dotted with 0.8 μL compound/DMSO in the assay buffer (50 mM Tris, pH 7.5, 0.01% Tween-20, 5 mM mgCl2, 0.01% BSA, 5 mM DTT), containing 0.05 μM Biotin-labeled BAD peptide substrate (AnaSpec 62269), 1 mM ATP, and 2.5 pM (Pim-1, Invitrogen PV3503) or 1.25 pM (Pim-3, Millipore 14-738) enzyme for 1 h at 25° C. Reactions were stopped by addition of 10 μL STOP Buffer (150 mM Tris, pH=7.5, 150 mM NaCl, 75 mM EDTA, 0.01% Tween-20, 0.3% BSA,) supplemented with Phospho-Bad (Ser112) Antibody (Cell Signaling 9291) diluted 666-fold, and Streptavidin donor beads (PerkinElmer 6760002) along with Protein-A acceptor beads (PerkinElmer 6760137) at 15 μg/mL each. Supplementation of the STOP buffer with beads and stopping the reactions were done under reduced light. Prior to the stopping reactions STOP buffer with beads was preincubated for 1 h in the dark at room temperature. After stopping the reactions, plates were incubated for 1 h in the dark at room temperature before reading on a PHERAstar FS plate reader (BMG Labtech) under reduced light.

pBAD in KMS.12.BM cells = test: Pim pBAD signaling assay in KMS.12.BM cells (Example B); type: cell-based; conditions: Homo sapiens, 2.5 h incubation, pBAD ELISA
Protocol: KG-1A cells are purchased from ATCC (Manassas, Va.) and KMS.12.BM cells are purchased from NIBIO, JCRB cell bank (Tokyo, Japan) and maintained in the culture mediums recommended, RPMI, 10% FBS and IMDM 20% FBS (Mediatech, Manassas, Va.) respectively. To measure the pBAD inhibitory activity of the compounds, both cell lines are plated with the culture medium (1×10^6/well/100 μL for KG1A and 4×10^5 cells/well/in 100 μL for KMS12BM) into 96-well V bottom polypropylene plates (Matrix, Thermo Fisher, USA) and incubated 30 min. at 37° C. to normalize cell signaling from handling. Test compounds are added at an appropriate concentration range and further incubated for 2.5 h for KMS.12.BM cells and 4 h for KG1-A cells. Plates are centrifuged at 2000 RPM for 10 min. and supernatants aspirated. 100 μL lysis buffer with protease inhibitors (Cell Signaling Technologies, Danver, Mass., Sigma, St Louis Mo., EMD, USA) is added to the pellets, mixed well and set on ice for 30 min. Lysates are frozen overnight at −80° C. To measure the pBAD activity, a Cell Signaling ELISA kit (Cell Signaling Path Scan phosphor pBAD ELISA) is utilized. 50 μL of the lysate is tested per the ELISA protocol and the data analysis is performed by software on a SpectrMax5 plate reader (Molecular Devices, Sunnyvale, Calif.). IC50 determination is performed by fitting the curve of percent inhibition versus the log of the inhibitor concentration using the GraphPad Prism 5.0 software.

Pim-2 = Pim-2 (Homo sapiens (Human), UniProt Q9P1W9); test: Pim-2 kinase assay (Pim enzyme assays, Example A); type: biochemical; conditions: 1 mM ATP, CREBtide peptide substrate; read-out: PIM2 IC50
Pim-2, sequence (Q9P1W9 whole entry): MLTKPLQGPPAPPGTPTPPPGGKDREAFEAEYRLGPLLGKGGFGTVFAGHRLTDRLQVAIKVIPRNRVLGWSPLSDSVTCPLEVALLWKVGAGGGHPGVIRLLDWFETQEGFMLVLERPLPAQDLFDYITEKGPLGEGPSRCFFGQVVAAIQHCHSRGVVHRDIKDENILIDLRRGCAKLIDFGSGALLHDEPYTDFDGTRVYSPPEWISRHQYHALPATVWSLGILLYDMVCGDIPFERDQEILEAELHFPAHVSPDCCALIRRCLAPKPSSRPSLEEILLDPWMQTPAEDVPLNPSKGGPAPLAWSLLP
Protocol: Pim-2 kinase assay-20 μL reactions were run in white 384 well polystyrene plates dotted with 0.8 μL compound/DMSO in the assay buffer (50 mM Tris, pH 7.5, 0.01% Tween-20, 5 mM mgCl2, 0.01% BSA, 5 mM DTT), containing 0.05 μM Fluorescein-labeled CREBtide peptide substrate (Invitrogen PV3508), 1 mM ATP, and 1 nM enzyme (Invitrogen PV3649) for 2 h at 25° C. Reactions were stopped by addition of 10 μL TR-FRET Dilution Buffer (Invitrogen PV3574) with 30 mM EDTA and 1.5 nM LanthaScreen Tb-CREB pSer133 antibody (Invitrogen PV3566). After 30 min. incubation at room temperature, plates were read on a PHERAstar FS plate reader (BMG Labtech).

Pim-1 = Pim-1 (Homo sapiens (Human), UniProt P11309); test: Pim-1 kinase assay (Pim enzyme assays, Example A); type: biochemical; conditions: 1 mM ATP, BAD peptide substrate; read-out: PIM1 IC50
Pim-1, sequence (P11309 whole entry): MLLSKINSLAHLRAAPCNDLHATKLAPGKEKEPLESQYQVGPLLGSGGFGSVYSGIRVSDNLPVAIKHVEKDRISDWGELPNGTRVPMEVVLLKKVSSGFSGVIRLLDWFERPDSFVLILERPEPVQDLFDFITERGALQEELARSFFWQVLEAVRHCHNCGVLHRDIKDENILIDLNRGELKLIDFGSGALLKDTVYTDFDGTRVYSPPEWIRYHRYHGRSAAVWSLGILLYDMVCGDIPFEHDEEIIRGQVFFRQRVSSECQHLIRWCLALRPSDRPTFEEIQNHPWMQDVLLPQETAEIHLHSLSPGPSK
Protocol: as §1

Row | Structure (SMILES) | IC50 (Pim-3) | IC50 (pBAD in KMS.12.BM cells) | IC50 (Pim-2) | IC50 (Pim-1)
1 | CCn1cc(-c2cnc3ccc(C(=O)Nc4cnccc4N4C[C@@H](N)[C@H](O)[C@@H](C5CC5)C4)nc3c2)cn1 [Example 38, N-{4-[(3R,4R,5S)-3-Amino-5-cyclopropyl-4-hydroxypiperidin-1-yl]pyridin-3-yl}-7-(1-ethyl-1H-pyrazol-4-yl)-1,5-naphthyridine-2-carboxamide] | ≤ 10 nM | ≤ 50 nM | ≤ 100 nM | ≤ 10 nM
2 | C[C@H]1CN(c2ccncc2NC(=O)c2ccc3ccc(-c4ccc(OC5CCOCC5)nc4)cc3n2)C[C@@H](N)[C@@H]1O [Example 52, N-{4-[(3R,4R,5S)-3-Amino-4-hydroxy-5-methylpiperidin-1-yl]pyridin-3-yl}-7-[6-(tetrahydro-2H-pyran-4-yloxy)pyridin-3-yl]quinoline-2-carboxamide] | ≤ 10 nM | 50 to 250 nM | ≤ 100 nM | ≤ 10 nM
3 | C[C@H]1CN(c2ccncc2NC(=O)c2ccc3ccc(N4CCC(C#N)CC4)cc3n2)C[C@@H](N)[C@@H]1O [Example 16, N-{4-[(3R,4R,5S)-3-Amino-4-hydroxy-5-methylpiperidin-1-yl]pyridin-3-yl}-7-(4-cyanopiperidin-1-yl)quinoline-2-carboxamide] | ≤ 10 nM | ≤ 50 nM | ≤ 100 nM | ≤ 10 nM
4 | Cn1cc(-c2cnc3ccc(C(=O)Nc4cnccc4N4C[C@@H](N)[C@H](O)[C@@H](C5CC5)C4)nc3c2)cn1 [Example 39, N-{4-[(3R,4R,5S)-3-Amino-5-cyclopropyl-4-hydroxypiperidin-1-yl]pyridin-3-yl}-7-(1-methyl-1H-pyrazol-4-yl)-1,5-naphthyridine-2-carboxamide] | ≤ 10 nM | 50 to 250 nM | ≤ 100 nM | ≤ 10 nM
5 | CC(C)c1cnc2ccc(C(=O)Nc3cnccc3N3C[C@@H](N)[C@H](O)[C@@H](C)C3)nc2c1 [Example 6] | ≤ 10 nM | ≤ 50 nM | ≤ 100 nM | ≤ 10 nM
6 | C[C@H]1CN(c2ccncc2NC(=O)c2ccc3ccc(-c4cnn(C)c4)cc3n2)C[C@@H](N)[C@@H]1O [Example 43, N-{4-[(3R,4R,5S)-3-Amino-4-hydroxy-5-methylpiperidin-1-yl]pyridin-3-yl}-7-(1-methyl-1H-pyrazol-4-yl)quinoline-2-carboxamide] | ≤ 10 nM | ≤ 50 nM | ≤ 100 nM | ≤ 10 nM
7 | C[C@H]1CN(c2ccncc2NC(=O)c2ccc3ccc(-c4cccnc4)cc3n2)C[C@@H](N)[C@@H]1O [Example 47, N-(4-((3R,4R,5S)-3-Amino-4-hydroxy-5-methylpiperidin-1-yl)pyridin-3-yl)-7-(pyridin-3-yl)quinoline-2-carboxamide] | ≤ 10 nM | ≤ 50 nM | ≤ 100 nM | ≤ 10 nM
8 | C[C@@H]1C[C@H](N)CN(c2ccncc2NC(=O)c2ccc3ccc(N4CCC(N5CCOCC5)CC4)cc3n2)C1 [Example 27, N-{4-[(3S,5R)-3-Amino-5-methylpiperidin-1-yl]pyridin-3-yl}-7-(4-morpholin-4-ylpiperidin-1-yl)quinoline-2-carboxamide] | ≤ 10 nM | 50 to 250 nM | 100 to 1000 nM | ≤ 10 nM
9 | N[C@@H]1CN(c2ccncc2NC(=O)c2ccc3ncc(N4CCC5(CCOCC5)CC4)cc3n2)C[C@H](C2CC2)[C@H]1O [Example 40, N-{4-[(3R,4R,5S)-3-Amino-5-cyclopropyl-4-hydroxypiperidin-1-yl]pyridin-3-yl}-7-(3-oxa-9-azaspiro[5.5]undec-9-yl)-1,5-naphthyridine-2-carboxamide] | ≤ 10 nM |  | 100 to 1000 nM | ≤ 10 nM
10 | C[C@H]1CN(c2ccncc2NC(=O)c2ccc3ccc(N4CCC5(CCOCC5)CC4)cc3n2)C[C@@H](N)[C@@H]1O [Example 14, N-{4-[(3R,4R,5S)-3-Amino-4-hydroxy-5-methylpiperidin-1-yl]pyridin-3-yl}-7-(3-oxa-9-azaspiro[5.5]undec-9-yl)quinoline-2-carboxamide] | ≤ 10 nM | 50 to 250 nM | ≤ 100 nM | ≤ 10 nM
11 | CCN1CCN(c2ccc3ccc(C(=O)Nc4cnccc4N4C[C@H](C)C[C@H](N)C4)nc3c2)CC1=O [Example 23, N-{4-[(3S,5R)-3-Amino-5-methylpiperidin-1-yl]pyridin-3-yl}-7-(4-ethyl-3-oxopiperazin-1-yl)quinoline-2-carboxamide] | ≤ 10 nM | ≤ 50 nM | ≤ 100 nM | ≤ 10 nM
12 | N#Cc1ccccc1-c1cnc2ccc(C(=O)Nc3cnccc3N3C[C@@H](N)C[C@@H](C(F)(F)F)C3)nc2c1 [Example 51, N-{4-[(3S,5R)-3-Amino-5-(trifluoromethyl)piperidin-1-yl]pyridin-3-yl}-7-(2-cyanophenyl)-1,5-naphthyridine-2-carboxamide] | ≤ 10 nM | ≤ 50 nM | ≤ 100 nM | ≤ 10 nM
13 | COc1ccc(-c2ccc3ccc(C(=O)Nc4cnccc4N4C[C@@H](N)[C@H](O)[C@@H](C)C4)nc3c2)cn1 [Example 45, N-{4-[(3R,4R,5S)-3-Amino-4-hydroxy-5-methylpiperidin-1-yl]pyridin-3-yl}-7-(6-methoxypyridin-3-yl)quinoline-2-carboxamide] | ≤ 10 nM | ≤ 50 nM | ≤ 100 nM | ≤ 10 nM
14 | C[C@H]1CN(c2ccncc2NC(=O)c2ccc3ccc(N4CCOCC4)cc3n2)C[C@@H](N)[C@@H]1O [Example 12, N-{4-[(3R,4R,5S)-3-Amino-4-hydroxy-5-methylpiperidin-1-yl]pyridin-3-yl}-7-morpholin-4-ylquinoline-2-carboxamide] | ≤ 10 nM | ≤ 50 nM | ≤ 100 nM | ≤ 10 nM
15 | C[C@H]1CN(c2ccncc2NC(=O)c2ccc3ccc(N4CC(C)(C)C4)cc3n2)C[C@@H](N)[C@@H]1O [Example 32, N-{4-[(3R,4R,5S)-3-Amino-4-hydroxy-5-methylpiperidin-1-yl]pyridin-3-yl}-7-(3,3-dimethylazetidin-1-yl)quinoline-2-carboxamide] | ≤ 10 nM |  | 100 to 1000 nM | ≤ 10 nM
16 | C[C@@H]1C[C@H](N)CN(c2ccncc2NC(=O)c2ccc3ccc(N4CCC(C(F)(F)F)C4)cc3n2)C1 (stereo partly drawn) [Example 29, N-{4-[(3S,5R)-3-Amino-5-methylpiperidin-1-yl]pyridin-3-yl}-7-[3-(trifluoromethyl)pyrrolidin-1-yl]quinoline-2-carboxamide] | ≤ 10 nM |  | 100 to 1000 nM | ≤ 10 nM
17 | C[C@@H]1C[C@H](N)CN(c2ccncc2NC(=O)c2ccc3ccc(N4CC(C)(C)C4)cc3n2)C1 [Example 33, N-{4-[(3S,5R)-3-Amino-5-methylpiperidin-1-yl]pyridin-3-yl}-7-(3,3-dimethylazetidin-1-yl)quinoline-2-carboxamide] | ≤ 10 nM |  | 1000 to 10000 nM | ≤ 10 nM
18 | C[C@H]1CN(c2ccncc2NC(=O)c2ccc3ccc(N4CCC(C(F)(F)F)C4)cc3n2)C[C@@H](N)[C@@H]1O (stereo partly drawn) [Example 28, N-{4-[(3R,4R,5S)-3-Amino-4-hydroxy-5-methylpiperidin-1-yl]pyridin-3-yl}-7-[3-(trifluoromethyl)pyrrolidin-1-yl]quinoline-2-carboxamide] | ≤ 10 nM |  | 100 to 1000 nM | ≤ 10 nM
